Experimental data taken from paper PMC12028158, “Synthesis and In Vitro Evaluation of the Anticancer Effect of Novel Phosphonium Vindoline Derivatives” (International Journal of Molecular Sciences, 2025).

How the values were obtained:
Assay type in all cases: cell-based
HL-60(TB) = assay: NCI60 one-dose screen; conditions: Homo sapiens, HL-60, read-out: Growth percent
RXF 393 [1] = assay: NCI60 one-dose screen; conditions: Homo sapiens, RXF 393, read-out: Growth percent
DU-145 [2] = assay: NCI60 five-dose screen; conditions: Homo sapiens, DU-145
HOP-92 = assay: NCI60 five-dose screen; conditions: Homo sapiens, HOP-92
NCI-H460 = assay: NCI60 five-dose screen; conditions: Homo sapiens, NCI-H460
BT-549 [3] = assay: NCI60 one-dose screen; conditions: Homo sapiens, BT-549, read-out: Growth percent
LOX IMVI = assay: NCI60 one-dose screen; conditions: Homo sapiens, read-out: Growth percent
RXF 393 [4] = assay: NCI60 five-dose screen; conditions: Homo sapiens, RXF 393
HS 578T = assay: NCI60 five-dose screen; conditions: Homo sapiens, Hs-578T
COLO 205 = assay: NCI60 five-dose screen; conditions: Homo sapiens, COLO 205
Breast Cancer panel = assay: NCI60 five-dose screen, panel mean; conditions: Homo sapiens, read-out: GI50 Mean
SW-620 = assay: NCI60 five-dose screen; conditions: Homo sapiens, SW-620
CAKI-1 [5] = assay: NCI60 one-dose screen; conditions: Homo sapiens, CAKI-1, read-out: Growth percent
HOP-62 = assay: NCI60 one-dose screen; conditions: Homo sapiens, HOP-62, read-out: Growth percent
786-0 = assay: NCI60 five-dose screen; conditions: Homo sapiens, 786-0
MDA-MB-468 = assay: NCI60 one-dose screen; conditions: Homo sapiens, MDA-MB-468, read-out: Growth percent
RPMI-8226 = assay: NCI60 five-dose screen; conditions: Homo sapiens, RPMI-8226
UACC-62 = assay: NCI60 five-dose screen; conditions: Homo sapiens, UACC-62
HCT-116 = assay: NCI60 one-dose screen; conditions: Homo sapiens, HCT-116, read-out: Growth percent
HCC-2998 = assay: NCI60 five-dose screen; conditions: Homo sapiens, HCC 2998
[6] = tested on: 60 human tumor cell lines (NCI60); assay: NCI60 one-dose screen, overall mean; conditions: Homo sapiens, 60 cell, read-out: Mean growth percent
EKVX = assay: NCI60 one-dose screen; conditions: Homo sapiens, read-out: Growth percent
HT29 [7] = assay: NCI60 five-dose screen; conditions: Homo sapiens, HT-29
ACHN = assay: NCI60 one-dose screen; conditions: Homo sapiens, read-out: Growth percent
OVCAR-3 = assay: NCI60 one-dose screen; conditions: Homo sapiens, OVCAR-3, read-out: Growth percent
OVCAR-5 [8] = assay: NCI60 five-dose screen; conditions: Homo sapiens, OVCAR-5
NCI-H226 [9] = assay: NCI60 five-dose screen; conditions: Homo sapiens, NCI-H226
CCRF-CEM = assay: NCI60 five-dose screen; conditions: Homo sapiens
HT29 [10] = assay: NCI60 one-dose screen; conditions: Homo sapiens, HT-29, read-out: Growth percent
BT-549 [11] = assay: NCI60 five-dose screen; conditions: Homo sapiens, BT-549
HCT-15 = assay: NCI60 one-dose screen; conditions: Homo sapiens, HCT-15, read-out: Growth percent
DU-145 [12] = assay: NCI60 one-dose screen; conditions: Homo sapiens, DU-145, read-out: Growth percent
MDA-MB-231/ATCC = assay: NCI60 one-dose screen; conditions: Homo sapiens, MDA-MB-231, read-out: Growth percent
NCI/ADR-RES = assay: NCI60 one-dose screen; conditions: Homo sapiens, read-out: Growth percent
OVCAR-4 = assay: NCI60 five-dose screen; conditions: Homo sapiens, OVCAR-4
NCI-H226 [13] = assay: NCI60 one-dose screen; conditions: Homo sapiens, NCI-H226, read-out: Growth percent
U251 = assay: NCI60 one-dose screen; conditions: Homo sapiens, U-251, read-out: Growth percent
CAKI-1 [14] = assay: NCI60 five-dose screen; conditions: Homo sapiens, CAKI-1
UO-31 = assay: NCI60 one-dose screen; conditions: Homo sapiens, UO-31, read-out: Growth percent
T-47D = assay: NCI60 one-dose screen; conditions: Homo sapiens, T47D, read-out: Growth percent
CNS Cancer panel = assay: NCI60 five-dose screen, panel mean; conditions: Homo sapiens, read-out: GI50 Mean
A498 [15] = assay: NCI60 one-dose screen; conditions: Homo sapiens, A498, read-out: Growth percent
OVCAR-5 [16] = assay: NCI60 one-dose screen; conditions: Homo sapiens, OVCAR-5, read-out: Growth percent
A498 [17] = assay: NCI60 five-dose screen; conditions: Homo sapiens, A498

CC[C@]12C=CCN3CC[C@@]4(c5ccc(OC)cc5N(C)[C@H]4[C@@](O)(C(=O)OC)[C@@H]1OC(=O)CCCC[P+](c1ccccc1)(c1ccccc1)c1ccccc1)[C@@H]32 [compound 4, reference compound]
activity at 10 µM (HL-60(TB)): -63.5% | activity at 10 µM (RXF 393 [1]): -13.3% | GI50 (DU-145 [2]): 763 nM | GI50 (HOP-92): 268 nM | GI50 (NCI-H460): 2110 nM | activity at 10 µM (BT-549 [3]): -1.04% | activity at 10 µM (LOX IMVI): 18.5% | GI50 (RXF 393 [4]): 308 nM | GI50 (HS 578T): 1230 nM | GI50 (COLO 205): 242 nM | GI50 (Breast Cancer panel): 500 nM | GI50 (SW-620): 1180 nM | activity at 10 µM (CAKI-1 [5]): 85.9% | activity at 10 µM (HOP-62): 26.4% | GI50 (786-0): 2900 nM | activity at 10 µM (MDA-MB-468): -63.9% | GI50 (RPMI-8226): 497 nM | GI50 (UACC-62): 403 nM | activity at 10 µM (HCT-116): 8.03% | GI50 (HCC-2998): 367 nM | activity at 10 µM [6]: 11.9% | activity at 10 µM (EKVX): 56.1% | GI50 (HT29 [7]): 404 nM | activity at 10 µM (ACHN): 93% | activity at 10 µM (OVCAR-3): -0.29% | GI50 (OVCAR-5 [8]): 1820 nM | GI50 (NCI-H226 [9]): 1930 nM | GI50 (CCRF-CEM): 697 nM | activity at 10 µM (HT29 [10]): 2.65% | GI50 (BT-549 [11]): 583 nM | activity at 10 µM (HCT-15): 99.3% | activity at 10 µM (DU-145 [12]): 14.7% | activity at 10 µM (MDA-MB-231/ATCC): -2.41% | activity at 10 µM (NCI/ADR-RES): 91.6% | GI50 (OVCAR-4): 326 nM | activity at 10 µM (NCI-H226 [13]): 15.1% | activity at 10 µM (U251): 10.9% | GI50 (CAKI-1 [14]): 2820 nM | activity at 10 µM (UO-31): 81.9% | activity at 10 µM (T-47D): 4.99% | GI50 (CNS Cancer panel): 940 nM | activity at 10 µM (A498 [15]): 52.2% | activity at 10 µM (OVCAR-5 [16]): 23.8% | GI50 (A498 [17]): 2840 nM
